US8088746B2, “Bis-modified bicyclic nucleic acid analogs” (Isis Pharmaceuticals, Inc., priority 2006, dated 2012)
Strand notation (5' to 3'): a small letter for the sugar, then the base; units joined by * are phosphorothioate-linked, units joined directly phosphodiester-linked; [ ] holds rarer units or linkages, { } end groups; capitals alone tell only the bases. [cMOE-R-N] = 6-(R)-CH2-O-CH3 BNA nucleoside (4'-CH(CH2OCH3)-O-2' bridge, R configuration) (N: the base); [6'R-Me-BNA] = 6-(R)-CH3 bicyclic nucleoside (R-constrained ethyl); [5'S-Me-BNA] = 5'-(S)-CH3 4'-CH2-O-2' bicyclic nucleoside; [6'S-cMOE] = 6-(S)-CH2-O-CH3 bicyclic nucleoside; e = 2'-O-(2-methoxyethyl) (MOE); l = locked nucleic acid (LNA); k = constrained ethyl (cEt); v = modified nucleoside v; [5mC] = 5-methylcytosine; d = 2'-deoxy (DNA)

Experiments:
PTEN [1] = assay: 2-14-2 gapped oligomers targeted to PTEN (Example 50), in vivo single injection, liver mRNA; conditions: 72 hrs
PTEN [2] = assay: 2-14-2 gapped oligomers targeted to PTEN (Example 42), in vivo single injection, liver mRNA; conditions: for % UTC: liver mRNA, 72 hrs
PTEN [3] = assay: 5′-vinyl and LNA gapped oligomers targeted to PTEN (Example 51), in vivo single injection, liver mRNA; conditions: 64 hrs; for PTEN % UTC: 18 mers, liver mRNA; for ED50: PTEN liver mRNA
RNA complement = assay: Tm by melting against RNA complement (Example 51); conditions: 18 mers, melting against the RNA 20 mer (131566), 14 base complementary region
[4] = injected once 60 mg/kg (last dose column)
[5] = injected once, second dose column, printed 60 mg/kg

Substance	% UTC (PTEN [1]; injected once 2 μmol/kg)	% UTC (PTEN [1]; injected once 10 μmol/kg)	% UTC (PTEN [2]; injected once 2 μmol/kg)	% UTC (PTEN [2]; injected once 10 μmol/kg)	also measured
ISIS NO. 394420: MeCeTeGCTAGCCTCTGGATTeTe; 2′-O-MOE 2-14-2 gapped oligomer targeted to PTEN (CTGCTAGCCTCTGGATTT; sugars from the 5' end e2 d14 e2, [5mC] at 1, backbone not given here) [reference compound]	79%	26%	79%	26%	–
ISIS NO. 394425: MeClTlGCTAGCCTCTGGATTlTl; 4′-CH2-O-2′ BNA 2-14-2 gapped oligomer targeted to PTEN (CTGCTAGCCTCTGGATTT; sugars from the 5' end l2 d14 l2, [5mC] at 1, backbone not given here) [reference compound]	–	–	11%	2.1%	PTEN % UTC (PTEN [3]; injected once 1.9 mg/kg): 100%; PTEN % UTC (PTEN [3]; injected once 19 mg/kg): 8%; PTEN % UTC (PTEN [3]; [4]): 4%; PTEN % UTC (PTEN [3]; [5]): 35%; ED50 (PTEN [3]; injected once): 4.4 mg/kg; Tm (RNA complement): 61.6 °C
ISIS NO. 400521: CSUSGCTAGCCTCTGGATUSUS; 5′-(S)-CH3 BNA 2-14-2 gapped oligomer targeted to PTEN (CUGCTAGCCTCTGGATUU; sugars from the 5' end [5'S-Me-BNA]2 d14 [5'S-Me-BNA]2, backbone and methylation of C not given here)	–	–	21.4%	3.8%	efficacy, comparison in words (PTEN [2]; high dose group (10 micromole/Kg)): essentially equally efficacious as 394425
ISIS NO. 400522: CRURGCTAGCCTCTGGATURUR; 6-(R)-CH3 BNA 2-14-2 gapped oligomer targeted to PTEN (CUGCTAGCCTCTGGATUU; sugars from the 5' end [6'R-Me-BNA]2 d14 [6'R-Me-BNA]2, backbone and methylation of C not given here)	18%	4%	–	–	–
ISIS NO. 400523: CSUSGCTAGCCTCTGGATUSUS; 6-(S)-CH3 BNA 2-14-2 gapped oligomer targeted to PTEN (CUGCTAGCCTCTGGATUU; sugars from the 5' end k2 d14 k2, backbone and methylation of C not given here)	17%	4%	–	–	–
ISIS NO. 400524: CRURGCTAGCCTCTGGATURUR; 6-(R)-CH2-O-CH3 BNA 2-14-2 gapped oligomer targeted to PTEN ([cMOE-R-C]*[cMOE-R-U]*dG*dC*dT*dA*dG*dC*dC*dT*dC*dT*dG*dG*dA*dT*[cMOE-R-U]*[cMOE-R-U]; antisense)	23%	4%	–	–	–
ISIS NO. 400525: CSUSGCTAGCCTCTGGATUSUS; 6-(S)-CH2-O-CH3 BNA 2-14-2 gapped oligomer targeted to PTEN (CUGCTAGCCTCTGGATUU; sugars from the 5' end [6'S-cMOE]2 d14 [6'S-cMOE]2, backbone and methylation of C not given here)	21%	3%	–	–	–
ISIS NO. 411027: CvUvGCTAGCCTCTGGATUvUv; 18 mer gapped oligomer targeted to PTEN, subscript v nucleoside illustrated in a drawing (CUGCTAGCCTCTGGATUU; sugars from the 5' end v2 d14 v2, backbone and methylation of C not given here; further chemistry not fully specified)	–	–	–	–	PTEN % UTC (PTEN [3]; injected once 1.9 mg/kg): 89%; PTEN % UTC (PTEN [3]; injected once 19 mg/kg): 24%; PTEN % UTC (PTEN [3]; [4]): 7%; PTEN % UTC (PTEN [3]; [5]): 61%; ED50 (PTEN [3]; injected once): 7.4 mg/kg; Tm (RNA complement): 59.9 °C
